Reference: the NIST ThermoML archive (doi:10.1016/j.jct.2010.06.008)
Numbers after ± are expanded uncertainties.

Test: xn = mol fraction of the nth substance listed
Conditions: 101 kPa, Liquid; for speed of sound: Sing-around technique in a fixed-path interferometer; for mass density: Vibrating tube method

Question: With `CC(C)CCl` [1-chloro-2-methylpropane] + CCCCCCC as the compound, how does the speed of sound (283.15 K, x2 = 0) read?
Answer: Its speed of sound is 1141.7 ± 2.3 m/s.

Question: What about the speed of sound (283.15 K, x2 = 0.0507) of the same compound?
Answer: Its speed of sound is 1142.2 ± 2.3 m/s.

Question: What about the speed of sound (283.15 K, x2 = 0.0979) of the same compound?
Answer: The speed of sound was 1143 ± 2.3 m/s.

Question: And the speed of sound (283.15 K, x2 = 0.2004)?
Answer: Its speed of sound is 1145.4 ± 2.3 m/s.

Question: What about the speed of sound (283.15 K, x2 = 0.3008) of the same compound?
Answer: The speed of sound was 1149 ± 2.3 m/s.

Question: What about the speed of sound (283.15 K, x2 = 0.3993) of the same compound?
Answer: The speed of sound was 1153.4 ± 2.3 m/s.

Question: What about the speed of sound (283.15 K, x2 = 0.4999) of the same compound?
Answer: Its speed of sound is 1158.6 ± 2.3 m/s.

Question: What about the speed of sound (283.15 K, x2 = 0.5973) of the same compound?
Answer: The speed of sound was 1164.4 ± 2.3 m/s.

Question: What about the speed of sound (283.15 K, x2 = 0.6994) of the same compound?
Answer: The speed of sound was 1171.2 ± 2.3 m/s.

Question: What about the speed of sound (283.15 K, x2 = 0.8006) of the same compound?
Answer: Its speed of sound is 1178.7 ± 2.3 m/s.

Question: What about the speed of sound (283.15 K, x2 = 0.9002) of the same compound?
Answer: Its speed of sound is 1187 ± 2.3 m/s.

Question: And the speed of sound (283.15 K, x2 = 0.9491)?
Answer: The speed of sound was 1191 ± 2.3 m/s.

Question: What about the mass density (283.15 K, x2 = 0) of the same compound?
Answer: The mass density was 888.845 ± 0.23 kg/m3.

Question: What about the mass density (283.15 K, x2 = 0.0507) of the same compound?
Answer: The mass density was 874.748 ± 0.24 kg/m3.

Question: And the mass density (283.15 K, x2 = 0.0979)?
Answer: The mass density was 862.133 ± 0.24 kg/m3.

Question: What about the mass density (283.15 K, x2 = 0.2004) of the same compound?
Answer: Its mass density is 836.427 ± 0.24 kg/m3.

Question: What about the mass density (283.15 K, x2 = 0.3008) of the same compound?
Answer: The mass density was 813.265 ± 0.24 kg/m3.

Question: And the mass density (283.15 K, x2 = 0.3993)?
Answer: The mass density was 792.269 ± 0.24 kg/m3.

Question: And the mass density (283.15 K, x2 = 0.4999)?
Answer: The mass density was 772.383 ± 0.24 kg/m3.

Question: What about the mass density (283.15 K, x2 = 0.5973) of the same compound?
Answer: Its mass density is 754.5 ± 0.24 kg/m3.

Question: What about the mass density (283.15 K, x2 = 0.6994) of the same compound?
Answer: Its mass density is 737.065 ± 0.25 kg/m3.

Question: And the mass density (283.15 K, x2 = 0.8006)?
Answer: Its mass density is 720.978 ± 0.25 kg/m3.

Question: And the mass density (283.15 K, x2 = 0.9002)?
Answer: Its mass density is 706.284 ± 0.25 kg/m3.

Question: And the mass density (283.15 K, x2 = 0.9491)?
Answer: Its mass density is 699.353 ± 0.25 kg/m3.

Question: What about the speed of sound (298.15 K, x2 = 0) of the same compound?
Answer: Its speed of sound is 1078.6 ± 2.3 m/s.

Question: And the speed of sound (298.15 K, x2 = 0.0507)?
Answer: Its speed of sound is 1079.1 ± 2.3 m/s.

Question: And the speed of sound (298.15 K, x2 = 0.0979)?
Answer: Its speed of sound is 1079.8 ± 2.3 m/s.

Question: What about the speed of sound (298.15 K, x2 = 0.2004) of the same compound?
Answer: The speed of sound was 1082.2 ± 2.3 m/s.

Question: And the speed of sound (298.15 K, x2 = 0.3008)?
Answer: Its speed of sound is 1085.5 ± 2.3 m/s.

Question: What about the speed of sound (298.15 K, x2 = 0.3993) of the same compound?
Answer: The speed of sound was 1089.8 ± 2.3 m/s.

Question: What about the speed of sound (298.15 K, x2 = 0.4999) of the same compound?
Answer: Its speed of sound is 1094.9 ± 2.3 m/s.

Question: And the speed of sound (298.15 K, x2 = 0.5973)?
Answer: The speed of sound was 1100.6 ± 2.3 m/s.

Question: What about the speed of sound (298.15 K, x2 = 0.6994) of the same compound?
Answer: The speed of sound was 1107.2 ± 2.3 m/s.

Question: What about the speed of sound (298.15 K, x2 = 0.8006) of the same compound?
Answer: The speed of sound was 1114.2 ± 2.3 m/s.

Question: And the speed of sound (298.15 K, x2 = 0.9002)?
Answer: The speed of sound was 1122.3 ± 2.3 m/s.

Question: What about the speed of sound (298.15 K, x2 = 0.9491) of the same compound?
Answer: The speed of sound was 1126.4 ± 2.3 m/s.

Question: And the mass density (298.15 K, x2 = 0)?
Answer: The mass density was 871.533 ± 0.24 kg/m3.

Question: And the mass density (298.15 K, x2 = 0.0507)?
Answer: The mass density was 857.771 ± 0.24 kg/m3.

Question: And the mass density (298.15 K, x2 = 0.0979)?
Answer: The mass density was 845.448 ± 0.24 kg/m3.

Question: And the mass density (298.15 K, x2 = 0.2004)?
Answer: The mass density was 820.343 ± 0.24 kg/m3.

Question: What about the mass density (298.15 K, x2 = 0.3008) of the same compound?
Answer: The mass density was 797.726 ± 0.24 kg/m3.

Question: What about the mass density (298.15 K, x2 = 0.3993) of the same compound?
Answer: Its mass density is 777.224 ± 0.24 kg/m3.

Question: And the mass density (298.15 K, x2 = 0.4999)?
Answer: Its mass density is 757.812 ± 0.24 kg/m3.

Question: What about the mass density (298.15 K, x2 = 0.5973) of the same compound?
Answer: The mass density was 740.349 ± 0.25 kg/m3.

Question: And the mass density (298.15 K, x2 = 0.6994)?
Answer: Its mass density is 723.337 ± 0.25 kg/m3.

Question: And the mass density (298.15 K, x2 = 0.8006)?
Answer: The mass density was 707.64 ± 0.25 kg/m3.

Question: What about the mass density (298.15 K, x2 = 0.9002) of the same compound?
Answer: Its mass density is 693.212 ± 0.25 kg/m3.

Question: And the mass density (298.15 K, x2 = 0.9491)?
Answer: Its mass density is 686.54 ± 0.25 kg/m3.

Question: What about the speed of sound (313.15 K, x2 = 0) of the same compound?
Answer: Its speed of sound is 1016.3 ± 2.3 m/s.

Question: What about the speed of sound (313.15 K, x2 = 0.0507) of the same compound?
Answer: The speed of sound was 1016.8 ± 2.3 m/s.

Question: And the speed of sound (313.15 K, x2 = 0.0979)?
Answer: Its speed of sound is 1017.4 ± 2.3 m/s.

Question: And the speed of sound (313.15 K, x2 = 0.2004)?
Answer: Its speed of sound is 1019.6 ± 2.3 m/s.

Question: What about the speed of sound (313.15 K, x2 = 0.3008) of the same compound?
Answer: The speed of sound was 1022.9 ± 2.3 m/s.

Question: What about the speed of sound (313.15 K, x2 = 0.3993) of the same compound?
Answer: The speed of sound was 1027 ± 2.3 m/s.

Question: What about the speed of sound (313.15 K, x2 = 0.4999) of the same compound?
Answer: The speed of sound was 1032 ± 2.3 m/s.

Question: And the speed of sound (313.15 K, x2 = 0.5973)?
Answer: The speed of sound was 1037.5 ± 2.3 m/s.

Question: What about the speed of sound (313.15 K, x2 = 0.6994) of the same compound?
Answer: Its speed of sound is 1044 ± 2.3 m/s.

Question: And the speed of sound (313.15 K, x2 = 0.8006)?
Answer: Its speed of sound is 1051.1 ± 2.3 m/s.

Question: What about the speed of sound (313.15 K, x2 = 0.9002) of the same compound?
Answer: Its speed of sound is 1058.9 ± 2.3 m/s.

Question: What about the speed of sound (313.15 K, x2 = 0.9491) of the same compound?
Answer: Its speed of sound is 1062.7 ± 2.3 m/s.

Question: What about the mass density (313.15 K, x2 = 0) of the same compound?
Answer: Its mass density is 853.902 ± 0.24 kg/m3.

Question: What about the mass density (313.15 K, x2 = 0.0507) of the same compound?
Answer: The mass density was 840.47 ± 0.24 kg/m3.

Question: What about the mass density (313.15 K, x2 = 0.0979) of the same compound?
Answer: Its mass density is 828.448 ± 0.24 kg/m3.

Question: What about the mass density (313.15 K, x2 = 0.2004) of the same compound?
Answer: Its mass density is 803.95 ± 0.24 kg/m3.

Question: And the mass density (313.15 K, x2 = 0.3008)?
Answer: The mass density was 781.886 ± 0.24 kg/m3.

Question: What about the mass density (313.15 K, x2 = 0.3993) of the same compound?
Answer: Its mass density is 761.888 ± 0.24 kg/m3.

Question: What about the mass density (313.15 K, x2 = 0.4999) of the same compound?
Answer: Its mass density is 742.952 ± 0.25 kg/m3.

Question: What about the mass density (313.15 K, x2 = 0.5973) of the same compound?
Answer: Its mass density is 725.924 ± 0.25 kg/m3.

Question: And the mass density (313.15 K, x2 = 0.6994)?
Answer: The mass density was 709.345 ± 0.25 kg/m3.

Question: What about the mass density (313.15 K, x2 = 0.8006) of the same compound?
Answer: Its mass density is 694.051 ± 0.25 kg/m3.

Question: And the mass density (313.15 K, x2 = 0.9002)?
Answer: Its mass density is 679.976 ± 0.25 kg/m3.

Question: What about the mass density (313.15 K, x2 = 0.9491) of the same compound?
Answer: Its mass density is 673.496 ± 0.25 kg/m3.
